According to patent publication US20230014352A1, “INHALED STATINS AS BRONCHODILATORS TO IMPROVE LUNG FUNCTION IN RESPIRATORY DISEASES” (priority 2019, published 2023):

Columns and labels:
[1] = system: primary human airway smooth muscle (ASM) cells; assay: Contractile force screening (CFS), basal ASM cell contraction (strain energy); format: cell-based; settings: for strain energy (ASM contraction): compared to pravastatin; for basal ASM cell contraction: FIG. 1A/1D; for reversibility of force inhibitory effect: media without Pit after treatment, FIG. 10D
Description: Primary human airway smooth muscle (ASM) cells derived from both non-asthmatic and asthmatic donors were obtained from the Gift of Hope Organ and Tissue Donor Network. These cells have been well-characterized previously (see for example H. Yoshie et al., Biophys J (2018) 114(9):2194-99). All measurements were performed using cells at passage 5-8 from three non-asthmatic donors. Cells were grown on either 10% serum-containing F12 complete media, or serum-deprived media supplemented with insulin, transferrin, and selenium (Corning, Tewksbury, Mass.). Contractile Force Screening: Human ASM cells were grown to confluence in 96-well plates on custom NuSilTM 8100 elastic substrates (Avantor, Inc., Radnor, Pa.) (R. […] Fluorescent beads (diameter 400 nm) were embedded in the substrate surface to enable traction force calculations based on their displacements. To measure fractions, an inverted epi-fluorescence microscope (DMI 6000B, Leica Inc., Germany) equipped with a heated chamber (37° C.), a monochrome camera ([…]), and a motorized stage was used. Spatial images were recorded of substrate-embedded fluorescent beads at 10× magnification. Based on the bead displacements (resolution 15 μm) relative to a cell-free model, together with knowledge of substrate stiffness and thickness, fractions were computed using the approach of Fourier Transform Traction Cytometry ([…] et al., Pharmacol Ther (2014) 143(1):87-110), modified to the case of cell monolayers ([…] et al., Cell (2007) 129(3):511-22). From each fraction map, the root-mean-squared traction (RMST) value and strain energy were calculated and reported as a measure of normal contraction in the monolayer. On a well-by-well basis, the ratio of the strain energy after vs. before treatment was computed, and all values of a given treatment group were normalized to the mean of each treatment group. Comparison of Statins: […] MA is the immediate product of HMGCR action on HMB-CoA, so addition of MA would reverse the effect of statin inhibition of HMGCR. […] Simvastatin-acid (SA), atorvastatin, pravastatin, and pitavastatin were examined with CFS to determine the dose response of the ASM relaxation effect. […] From each ASM force map, the strain energy (i.e., the energy that is imparted to the substrate by the contractile cells, in pJ) was computed, to represent the average cellular contraction.

ASM cells [2] = assay: RealTime-Glo Annexin V Apoptosis and Necrosis assay; format: cell-based, human
Description: Lack of apoptosis: Some studies have shown that statins at high enough doses can reduce the viability of vascular smooth muscle cells, epithelial cells, and endothelial cells (S. Ghavami et al., Biochim Biophys Acta (2014) 1843(7):1259-71; T. P. Miettinen et al., Cell Rep (2015) 13(11):2610-20).
RealTime-Glo™ Annexin V Apoptosis and Necrosis assay was performed by growing ASM cells on 96-well white cell culture plate according to the manufacturer's instructions (Promega Inc). […] In this real-time annexin V binding assay, the luminescence signal was detected for apoptosis and necrosis was detected with a fluorescence signal by using a SpectraMax® plate reader. […] (20 μg/mL) was used as a positive control (FIG. 2).

airways of C57BL/6 mice = assay: Non-inflammatory methacholine (MCh)-induced hypercontractile mouse model, airway % contraction in precision-cut lung slices; format: in vivo; settings: intratracheal 5 mg/kg for 5 days, 1 hr prior to each MCh nebulization
Description: In this model, mice were administered nebulized methacholine (MCh) during postnatal maturation of ASM, which causes a hypercontractile phenotype without any induction of inflammatory responses.
All mouse experiments were approved by the Institutional Animal Care and Use Committee at Brigham & Women's Hospital, Harvard Medical School. The methacholine-induced hypercontractile mouse model has been described in K. R. Patel et al., FASEB J (2017) 31(10):4335-46. Briefly, mice (C57BL/6) were exposed to nebulized MCh (30 mg/mL) for 10 min daily between P15 and −20 (5 days). Control mice were administered nebulized normal saline. This establishes the MCh hyper-contractility asthma phenotype, a non-inflammatory model of asthmatic airway hyperresponsiveness AHR. Mice were administered intratracheal (i.t.) pitavastatin (5 mg/kg for five days) or vehicle control for 1 hour before each MCh nebulization. For airway % contraction assays, mouse precision-cut lung slices (PCLS) were stimulated to contract by increasing MCh concentrations (0.1-100 μM). For each measurement, at least n=4 mice were used from 2 independent experiments, and a total of 20-30 airways per lung.

ASM cells [3] = assay: Simulated deep breath (stretch-unstretch), cell mapping rheometry and CFS; format: cell-based, human; settings: 1 μM, 24 hrs; for force recovery after single stretch-unstretch maneuver (stretch-induced ASM force relaxation): 10% magnitude, 4-sec stretch, recovery over 180 seconds, FIG. 12B
Description: Well-defined biaxial stretch (4 sec duration, 10% magnitude) was imposed using the method of cell mapping rheometry. The strain energy from each ASM force map was computed as a metric of average cellular contraction, and reported as fold changes to the pre-stretch baseline value.
Normal ASM was treated with pitavastatin (1 μM, 24 hrs, n=7), isoproterenol (10 μM, 30 min, n=6) or vehicle (n=7), and examined by CFS as described above. […] Shown are contraction values normalized to the untreated control group. […] The contraction force gradually recovered over 180 seconds. […] All data are reported as mean and standard error of the mean (SEM).

ROCK-2 = assay: Total ROCK-2 expression, western blot; format: cell-based, human; settings: 1 μM, 24 hrs, FIG. 15C
Description: (§1) Non-asthmatic primary human ASM cells were treated with either vehicle or pitavastatin (1 μM) for 24 hours. Cells were then immuno-stained for F-actin expression. […] Cell lysates were analyzed by western blot for total ROCK-1, total ROCK-2, total MLC-2, and phosphorylated MLC-2. As shown in FIGS. 15C and 15D, pitavastatin reduced the total expression of ROCK-1, ROCK-2, and MLC-2 (total and phosphorylated).

MLC-2 = MLC-2 (total and phosphorylated) expression, western blot; format: cell-based, human; settings: 1 μM, 24 hours
Description: Antibodies for western blot analysis against total and phospho-MLC2 were obtained from Santa Cruz Biotechnology and Cell Signaling Technology, respectively. Antibodies for pROCK1, total ROCK1, and GAPDH were obtained from Abcam. Pitavastatin was obtained from Santa Cruz Biotechnology.
as §1

[4] = 1 μM, serum-deprived media, FIG. 10B

Compound: O=C(O)C[C@H](O)C[C@H](O)/C=C/c1c(C2CC2)nc2ccccc2c1-c1ccc(F)cc1 [pitavastatin]
- inhibitory potency on ASM contraction, dose-response ranking ([1]; 0-10 μM, FIG. 1C, 1D): most significant effect
- strain energy (ASM contraction) ([1]; 0.4 μM, 24 hours, FIG. 1C): significant reduction in strain energy
- basal ASM cell contraction ([1]; 1 μM, 24 hours): potently and significantly inhibits basal ASM contraction
- basal ASM cell contraction ([1]; 1 μM, 24 hours, listed as Pitavastatin): more potent
- relaxation effect at 24 hrs compared to simvastatin [1, 4]: more significant at 24 hrs
- relaxation effect at 24 hrs compared to simvastatin ([1]; 1 μM, serum-deprived media, FIG. 10B, listed as Pit): significantly more efficacious than Sim
- ASM relaxation over time compared to simvastatin ([1]; 1 μM, all time points including 24 hours, with or without media starvation, FIG. 4C): greater ASM relaxation than simvastatin
- reversibility of force inhibitory effect ([1]; 1 μM): reversible
- reversibility of force inhibitory effect ([1]; 1 μM, listed as Pit): reversed
- ASM contraction over time compared to control [1, 4]: reduced ASM contraction time-dependently
- strain energy (ASM contraction) ([1]; 2 and 10 μM, 24 hours, FIG. 1C): significantly (and further) reduce strain energy
- ASM contraction / ASM cell relaxation ([1]; FIG. 10A): inhibited ASM contraction
- dose-dependent effect on ASM ([1]; primary ASM cells from three different human donors, FIG. 3): dose-dependently relax ASM
- potency on basal ASM contraction relative to simvastatin ([1]; same dose, 1 μM, 24 hours, FIG. 1D): more potent than simvastatin
- start of ASM relaxing effects ([1]; time-dependent effects, FIG. 4C): 4 h
- apoptosis and necrosis (cell death) (ASM cells [2]): no evidence of apoptosis or cell death
- cellular toxicity (ASM cells [2]): did not demonstrate any
- % airway contraction (airways of C57BL/6 mice; FIG. 11B): 14.2%
- % contraction of airways (airways of C57BL/6 mice; PCLS response to 500 nM MCh, FIG. 6): 7.3%
- basal ASM contraction compared to untreated controls (ASM cells [3]; FIG. 12A): significantly inhibited basal ASM contraction
- force recovery after single stretch-unstretch maneuver (stretch-induced ASM force relaxation) (ASM cells [3]): significantly inhibited
- force recovery after single stretch-unstretch maneuver (stretch-induced ASM force relaxation) (ASM cells [3]; listed as Pitavastatin): augmented stretch-induced ASM force relaxation
- total (basal) expression of ROCK-2 (ROCK-2): reduced
- expression of MLC-2 (total and phosphorylated) (MLC-2): reduced
